Legend:
P. mirab. MGH-1 = experiment: In vitro antibacterial activity, MIC (modified Autotiter method); assay type: cell-based, Proteus mirabilis; settings: 18-20 hours at 37° C.; for MIC: Proteus mirabilis, 20 h, read-out: MIC P. mirab. MGH-1
Experimental: (§1) The antibacterial and antifungal activity of representative examples of the compounds of Formula I was determined using a modification of the Autotiter method described by Goss, et al. Applied Microbiology 16 (9) 1,414-1,416 (1968) in which a 1,000 mcg./ml. solution of the test compound is prepared. To the first cup of the Autotray is added 0.1 ml. of the test solution. Activation of the Autotiter initiates a sequence of operations by which 0.05 ml. of the test compound solution is withdrawn from the cup by a Microtiter transfer loop and diluted in 0.05 ml. of sterile water. Following this operation, 0.05 ml. of inoculated double-strength semisynthetic medium (glucose) is added automatically to each cup. The overall operation results in final drug concentrations ranging from 500 to 0.06 mcg./ml. in twofold decrements. […] The compounds were thus tested as solutions against a variety of gram positive and gram negative bacteria including Staphylococcus aureus, Proteus mirabilis, Escherichia coli, Klebsiella pneumoniae, Pseudomonas aeruginosa, Streptococcus pyogenes, and against such fungi as Aspergillus niger, Candida albicans and Trichophyton mentagrophytes.

C. albicans 10231 = experiment: In vitro antifungal activity, MIC (modified Autotiter method); assay type: cell-based, Candida albicans; settings: 18-20 hours at 37° C.; for MIC: Candida albicans, 10231, 20 h, read-out: MIC C. albicans 10231
Experimental: as §1

C. albicans Wisc. = experiment: as above; assay type: cell-based, Candida albicans; settings: 18-20 hours at 37° C.; for MIC: Candida albicans, 20 h, read-out: MIC C. albicans Wisc.
Experimental: as §1

Ps. aerug. MGH-2 = experiment: In vitro antibacterial activity, MIC (modified Autotiter method); assay type: cell-based, Pseudomonas aeruginosa; settings: 18-20 hours at 37° C.; for MIC: Pseudomonas aeruginosa, 20 h, read-out: MIC Ps. aerug. MGH-2
Experimental: as §1

A. niger 16404 = experiment: In vitro antifungal activity, MIC (modified Autotiter method); assay type: cell-based, Aspergillus niger; settings: 18-20 hours at 37° C.; for MIC: Aspergillus niger, 16404, 20 h, read-out: MIC A. niger 16404
Experimental: as §1

S. Aureus Smith = experiment: In vitro antibacterial activity, MIC (modified Autotiter method); assay type: cell-based, Staphylococcus aureus; settings: 18-20 hours at 37° C.; for MIC: Staphylococcus aureus, 20 h, read-out: MIC S. Aureus Smith
Experimental: as §1

S. pyogen. C203 = experiment: as above; assay type: cell-based, Streptococcus pyogenes; settings: 18-20 hours at 37° C.; for MIC: Streptococcus pyogenes, 20 h, read-out: MIC S. pyogen. C203
Experimental: as §1

E. coli AB1932-1 = experiment: as above; assay type: cell-based, Escherichia coli; settings: 18-20 hours at 37° C.; for MIC: Escherichia coli, AB19321, 20 h, read-out: MIC E. coli AB1932-1
Experimental: as §1

E. coli 100/B22 = experiment: as above; assay type: cell-based, Escherichia coli; settings: 18-20 hours at 37° C.; for MIC: Escherichia coli, 100/B22, 20 h, read-out: MIC E. coli 100/B22
Experimental: as §1

E. coli Vogel = experiment: as above; assay type: cell-based, Escherichia coli; settings: 18-20 hours at 37° C.; for MIC: Escherichia coli, 20 h, read-out: MIC E. coli Vogel
Experimental: as §1

K. pneum. 39645 = experiment: as above; assay type: cell-based, Klebsiella pneumoniae; settings: 18-20 hours at 37° C.; for MIC: Klebsiella pneumoniae, 20 h, read-out: MIC K. pneum. 39645
Experimental: as §1

T. menta. 9129 = experiment: In vitro antifungal activity, MIC (modified Autotiter method); assay type: cell-based, Trichophyton mentagrophytes; settings: 18-20 hours at 37° C.; for MIC: Trichophyton mentagrophytes, 20 h, read-out: MIC T. menta. 9129
Experimental: as §1

Clc1ccc(Nc2cc[n+](CCCCC[n+]3ccc(Nc4ccc(Cl)cc4)cc3)cc2)cc1 [Example 80, 1,5-bis-[4-(p-chlorophenylamino)-1-pyridinium]pentane dibromide] was tested, and the MIC (P. mirab. MGH-1) was over 125 µg/mL, the MIC (C. albicans 10231) was 62.5 µg/mL and the MIC (C. albicans Wisc.) was 62.5 µg/mL. It also gave an MIC (Ps. aerug. MGH-2) of over 125 µg/mL, an MIC (A. niger 16404) of 62.5 µg/mL and an MIC (S. Aureus Smith) of 7.8 µg/mL. It also gave an MIC (S. pyogen. C203) of 1.95 µg/mL, an MIC (E. coli AB1932-1) of 31.3 µg/mL and an MIC (E. coli 100/B22) of 125 µg/mL. For the same compound, the MIC (E. coli Vogel) was 125 µg/mL, the MIC (K. pneum. 39645) was over 125 µg/mL and the MIC (T. menta. 9129) was 15.6 µg/mL.

Work on CCCCCCCNc1cc[n+](CCCC[n+]2ccc(NCCCCCCC)cc2)cc1 [Example 20, 1,4-bis-[4-(heptylamino)-1-pyridinium]butane dibromide] yielded an MIC (P. mirab. MGH-1) of over 250 µg/mL, an MIC (C. albicans 10231) of 15.6 µg/mL and an MIC (C. albicans Wisc.) of 15.6 µg/mL. For the same compound, the MIC (Ps. aerug. MGH-2) was over 250 µg/mL, the MIC (A. niger 16404) was 15.6 µg/mL and the MIC (S. Aureus Smith) was 0.98 µg/mL. For the same compound, the MIC (S. pyogen. C203) was 0.49 µg/mL, the MIC (E. coli AB1932-1) was 7.8 µg/mL and the MIC (E. coli 100/B22) was 15.6 µg/mL. It also gave an MIC (E. coli Vogel) of 31.3 µg/mL, an MIC (K. pneum. 39645) of over 125 µg/mL and an MIC (T. menta. 9129) of 3.9 µg/mL.

CCCCCCCCCCNc1cc[n+](CCCCCCC[n+]2ccc(NCCCCCCCCCC)cc2)cc1 [Example 65, 1,7-bis-[4-(decylamino)-1-pyridinium]heptane dibromide] was tested, and the MIC (P. mirab. MGH-1) was 3.9 µg/mL, the MIC (C. albicans 10231) was 15.6 µg/mL and the MIC (C. albicans Wisc.) was 15.6 µg/mL. It also gave an MIC (Ps. aerug. MGH-2) of 7.8 µg/mL, an MIC (A. niger 16404) of 7.8 µg/mL and an MIC (S. Aureus Smith) of 1 µg/mL. For the same compound, the MIC (S. pyogen. C203) was 1 µg/mL, the MIC (E. coli AB1932-1) was 3.9 µg/mL and the MIC (E. coli 100/B22) was 3.9 µg/mL. The MIC (E. coli Vogel) was 3.9 µg/mL, the MIC (K. pneum. 39645) was 7.8 µg/mL and the MIC (T. menta. 9129) was 1.95 µg/mL.

For CCCCCCCNc1cc[n+](CCCCCC[n+]2ccc(NCCCCCCC)cc2)cc1 [Example 62C, 1,6-bis-[4-(heptylamino)-1-pyridinium]hexane dichloride], the “MIC P. mirab. MGH-1” value (P. mirab. MGH-1) was over 125 µg/mL, the “MIC C. albicans 10231” value (C. albicans 10231) was 3.9 µg/mL and the “MIC C. albicans Wisc.” value (C. albicans Wisc.) was 3.9 µg/mL. For the same compound, the “MIC Ps. aerug. MGH-2” value (Ps. aerug. MGH-2) was over 62.5 µg/mL, the “MIC A. niger 16404” value (A. niger 16404) was 7.8 µg/mL and the “MIC S. Aureus Smith” value (S. Aureus Smith) was 0.24 µg/mL. For the same compound, the “MIC S. pyogen. C203” value (S. pyogen. C203) was 0.98 µg/mL, the “MIC E. coli AB1932-1” value (E. coli AB1932-1) was 1.95 µg/mL and the “MIC E. coli 100/B22” value (E. coli 100/B22) was 1.95 µg/mL. The “MIC E. coli Vogel” value (E. coli Vogel) was 3.9 µg/mL, the “MIC K. pneum. 39645” value (K. pneum. 39645) was 3.9 µg/mL and the “MIC T. menta. 9129” value (T. menta. 9129) was 3.9 µg/mL.

Compound CCCCCCCCCCCCNc1cc[n+](CCCCCCCCC[n+]2ccc(NCCCCCCCCCCCC)cc2)cc1 [Example 73, 1,9-bis-[4-(dodecylamino)-1-pyridinium]nonane dibromide] has an MIC (P. mirab. MGH-1) of 62.5 µg/mL, an MIC (C. albicans 10231) of over 62.5 µg/mL and an MIC (C. albicans Wisc.) of 31.3 µg/mL. The MIC (Ps. aerug. MGH-2) was over 62.5 µg/mL, the MIC (A. niger 16404) was over 62.5 µg/mL and the MIC (S. Aureus Smith) was 7.8 µg/mL. For the same compound, the MIC (S. pyogen. C203) was 15.6 µg/mL, the MIC (E. coli AB1932-1) was over 62.5 µg/mL and the MIC (E. coli 100/B22) was 62.5 µg/mL. For the same compound, the MIC (E. coli Vogel) was 62.5 µg/mL, the MIC (K. pneum. 39645) was over 62.5 µg/mL and the MIC (T. menta. 9129) was 7.8 µg/mL.

CCCCCCCCCCCCNc1cc[n+](CCCCCCC[n+]2ccc(NCCCCCCCCCCCC)cc2)cc1 [Example 71, 1,7-bis-[4-(dodecylamino)-1-pyridinium]heptane dibromide] was tested, and the MIC (P. mirab. MGH-1) was 62.5 µg/mL, the MIC (C. albicans 10231) was 62.5 µg/mL and the MIC (C. albicans Wisc.) was 62.5 µg/mL. The MIC (Ps. aerug. MGH-2) was 62.5 µg/mL, the MIC (A. niger 16404) was 62.5 µg/mL and the MIC (S. Aureus Smith) was 3.9 µg/mL. The MIC (S. pyogen. C203) was 7.8 µg/mL, the MIC (E. coli AB1932-1) was 62.5 µg/mL and the MIC (E. coli 100/B22) was 62.5 µg/mL. The MIC (E. coli Vogel) was 62.5 µg/mL, the MIC (K. pneum. 39645) was over 62.5 µg/mL and the MIC (T. menta. 9129) was 7.8 µg/mL.

CCCCCCCCCCNc1cc[n+](CCCCCCCCC[n+]2ccc(NCCCCCCCCCC)cc2)cc1 [Example 67, 1,9-bis-[4-(decylamino)-1-pyridinium]nonane dibromide] showed an MIC (P. mirab. MGH-1) of 7.8 µg/mL, an MIC (C. albicans 10231) of 31.3 µg/mL and an MIC (C. albicans Wisc.) of 15.6 µg/mL. The MIC (Ps. aerug. MGH-2) was 7.8 µg/mL, the MIC (A. niger 16404) was 31.3 µg/mL and the MIC (S. Aureus Smith) was 1 µg/mL. For the same compound, the MIC (S. pyogen. C203) was 1.95 µg/mL, the MIC (E. coli AB1932-1) was 7.8 µg/mL and the MIC (E. coli 100/B22) was 3.9 µg/mL. For the same compound, the MIC (E. coli Vogel) was 1.95 µg/mL, the MIC (K. pneum. 39645) was 15.6 µg/mL and the MIC (T. menta. 9129) was 3.9 µg/mL.
